Reference: patent publication US20240391950A1, “PEPTIDE CROSSLINKING AGENT AND CROSSLINKED PEPTIDE WHICH IS CROSSLINKED USING SAID CROSSLINKING AGENT” (Kagoshima University, priority 2020, published 2024)
One block for each molecule: values may come before it. Starred links: 1 amine or outer side, 2 acyl side, 3 side chain; linkers in the order of their positions; H or OH if unused. Positions of bridges follow the written chain, without caps; N, C: chain ends. Residues, ends and D or L forms follow the SMILES beside them. X4 = C#CCON=C(C)C([*:1])[*:2]

Tests used:
[1] = biological target: T1, α-chymotrypsin (Bos taurus, UniProt P00766); assay: Resistance to α-chymotrypsin digestion followed by reverse-phase HPLC; format: in vitro ADME, bovine; details: for change of HPLC peak after addition of α-chymotrypsin: α-chymotrypsin 1/10 weight ratio, 37° C.; for resistance to protease (FIG. 10): α-chymotrypsin
T1 construct: purchased MP Biomedicals; host or cells: bovine pancreas
Method: For evaluation of stability of a peptide by crosslinking reaction, resistivity of α-chymotrypsin (derived from bovine pancreas, manufactured by MP Biomedicals) to protease decomposition was evaluated with oxytocin crosslinked by 2,2-dichloroacetophenone. Crosslinking of oxytocin by 2,2-dichloroacetophenone was performed in the same manner with replacement of 1.1-dichloroacetone in Example 11 by 2,2-dichloroacetophenone, and an objective product was taken by reverse-phase HPLC. Specifically, 10 mg (10 μmol) of oxytocin acetate was dissolved in 3 mL of a 0.1 M HEPES hydrochloric acid buffer (pH 8.0), the solution was mixed with 2 mL of a 0.1 M HEPES hydrochloric acid buffer (pH 8.0) containing 57.4 mg (200 μmol) of TCEP-HCl, and the mixture was stirred for 1 hour. Next, 8.3 mg (44 μmol) of 2,2-dichloroacetophenone dissolved in 0.44 mL of acetonitrile was added and mixed, and the mixture was stirred at room temperature for 1 hour. The resulting sample was applied to an InertSustain C18 column (5 μm, 14×250 mm, manufactured by GL Sciences Inc.) (flow rate 5 mL/min) connected to LC-Forte (manufactured by YMC). The elution was performed at a linear gradient from 4% to 70% (containing 0.1% formic acid). An objective product was taken, and freeze-dried after removal of acetonitrile at a negative pressure.
Evaluation was made with oxytocin-OX and an oxytocin SH reduced form (oxytocin-RD) shown by the following formula A3 used as comparison subjects. In other words, an oxytocin solution obtained by dissolution in a 0.1 M phosphate buffer (pH 7.0) at 0.5 mg/mL was adopted as oxytocin-OX, and a substance obtained after a lapse of 30 minutes from addition of an oxytocin solution obtained by dissolution in a 0.1 M phosphate buffer (pH 7.0) containing 0.5 mg/mL TCEP, at 0.5 mg/mL, was adopted as oxytocin-RD. To 200 μL of each of these solutions was 10 μL ( 1/10 on weight ratio to oxytocin) of 1 mg/mL α-chymotrypsin, and the resultant was subjected to incubation at 37° C. and analysis by reverse-phase HPLC. In the case of blank, a phosphate buffer was added instead of α-chymotrypsin.
A substance obtained after a lapse of 30 minutes from dissolution of 0.5 mg/mL oxytocin-DP purified, in a 0.1 M phosphate buffer (pH 7.0) containing 0.5 mg/mL TCEP, was adopted as a sample, and similarly α-chymotrypsin was added and analysis by reverse-phase HPLC was made.

[2] = biological target: human IgG1 (Homo sapiens, UniProt P01857); assay: SPR (BIAcore T200) measurement of binding affinity of crosslinked cyclic peptide to immobilized IgG
Sequence of human IgG1 (P01857 1-328 limits assumed): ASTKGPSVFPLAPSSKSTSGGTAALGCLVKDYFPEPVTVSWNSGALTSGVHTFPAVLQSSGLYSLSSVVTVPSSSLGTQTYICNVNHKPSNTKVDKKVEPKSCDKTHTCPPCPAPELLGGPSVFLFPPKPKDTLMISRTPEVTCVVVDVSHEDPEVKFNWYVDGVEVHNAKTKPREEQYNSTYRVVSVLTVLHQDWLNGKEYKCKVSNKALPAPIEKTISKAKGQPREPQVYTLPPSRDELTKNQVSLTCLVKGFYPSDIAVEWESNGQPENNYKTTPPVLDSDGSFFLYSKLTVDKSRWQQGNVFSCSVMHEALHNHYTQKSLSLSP
Method: The affinity analysis was performed by the following method. First, a CM5 sensor chip was installed on BIAcoreT200 (GE healthcare), and 0.4 M 1-ethyl-3-(3-dimethylaminopropyl)carbodiimide (EDC) and a 0.1 M sulfo-N-hydroxysuccinimide (sulfo-NHS) solution mixed in equivalent amounts were injected to the sensor chip at a flow rate of […], to thereby activate the sensor chip. Thereafter, IgG was immobilized onto the sensor chip under a condition of a pH of 5.5 (10 mM Na acetate). An HBS-EP buffer (10 mM HEPES, 150 mM NaCl, 0.005% Tween 20, 3 mM EDTA, pH 7.4) was used in measurement, and 15.625, 31.2, 62.5, 125, 250, and 500 nM of peptides were each injected at a flow rate of […] for 180 seconds, to thereby monitor binding reaction. When dissociation reaction was measured, only the buffer was injected for 600 seconds. The interaction parameter was analyzed with BIAevaluation T100 software.
IgG-binding peptide derivatives compared and evaluated are illustrated in FIG. 1.

[3] = tested on: human serum-derived IgG; assay: Dynamic binding capacity (DBC) measurement and alkali resistance evaluation of peptide-immobilized column; details: for Dynamic binding capacity: 10% breakthrough
Method: Five mL of 1 mM hydrochloric acid was sent to an NHS-activated prepacked column having a volume of 1 mL, and an isopropanol solution in the column was removed. Next, a 10.0 mg/mL peptide solution (dissolved in 100 μL of DMSO) was diluted with a coupling solution (20 mM carbonate buffer, 50 mM sodium chloride, pH 8.3) by 10-fold, 1 mL of the dilution liquid was sent, and immobilization was performed at room temperature for 4 hours. Thereafter, unreacted NHS was blocked by 5 mL of 1 M Tris (pH 8.0) at room temperature for 1 hour. Thereafter, washing with 5 mL of an aqueous 0.1 N NaOH solution was made. Finally, 10 mL of a PBS solution (20 mM phosphate buffer, 150 mM sodium chloride, pH 7.4) was sent, and used in chromatography evaluation.
A column where the amount of immobilization of a peptide was 1 mg was produced by the same method as described above. The column produced was equilibrated with PBS, and 1 mg/mL human serum-derived IgG (manufactured by Sigma-Aldrich Co. LLC) dissolved in PBS was sent at a flow rate of 1 mL/min (retention time 1 min). DBC was indicated as one determined from the amount of a protein added at the time of point where 10% of the absorbance at 280 nm of the sample added was leaked.
Next, 5 mL of an aqueous 0.1 N sodium hydroxide solution was sent to the 1-mL column where 1 mg of the peptide was immobilized. Thereafter, washing with PBS was performed. This cycle was repeated 30 times for the 1,1-dichloroacetone-crosslinked cyclic peptide, and was repeated 10 times for the 1,1-dichloropinacolin-crosslinked cyclic peptide. DBC measurement was performed at a flow rate of 1 mL/min at the 1st to 5th and 10th times of the cycles, and further performed at the 20th and 30th times of the cycles with respect to the 1,1-dichloroacetone-crosslinked cyclic peptide, and thus alkali resistance was evaluated. The variation in DBC was determined based on the measurement results under the assumption that DBC immediately after column production was 100% according to Table 2.
Five mL of a 0.1 M sodium hydroxide solution was sent to the produced 1-mL column where the amount of immobilization of a peptide was 1 mg, and thereafter washing with 5 mL of PBS was performed. These operations were defined as one cycle and treatment of washing with aqueous NaOH solution/washing with PBS was performed 1 to 30 times, and thereafter DBC measurement was performed at a flow rate of 1 mL/min at the intended number of times (1, 2, 3, 4, 5, 10, 20, 30 times).

[4] = biological target: human IgG1 (human); assay: SPR, BIAcore T200, IgG immobilised on CM5 chip, peptide as analyte
[5] = biological target: human IgG1 (human); assay: SPR, BIAcore T200, IgG immobilised on CM5 chip
[6] = biological target: human serum-derived IgG (manufactured by Sigma-Aldrich Co. LLC); assay: peptide-immobilised column, human serum IgG, 10% breakthrough
[7] = biological target: human IgG1 (human); assay: SPR, same affinity measurement as in Example 4
[8] = 0.1 M phosphate buffer pH 7.0 containing 0.5 mg/mL TCEP
[9] = in the presence of reducing agent TCEP
[10] = number of washing times with 0.1 N NaOH: 1

Molecule: CCC(C)C1NC(=O)C(Cc2ccc(O)cc2)NC(=O)C(N)CSSCC(C(=O)N2CCCC2C(=O)NC(CC(C)C)C(=O)NCC(N)=O)NC(=O)C(CC(N)=O)NC(=O)C(CCC(N)=O)NC1=O (stereo not drawn) [oxytocin-OX, Cys-Tyr-Ile-Gln-Asn-Cys-Pro-Leu-Gly-NH2]
change of HPLC peak after addition of α-chymotrypsin ([1]; 0.1 M phosphate buffer pH 7.0, no TCEP, 15 minutes to 2 hours): no change of any peak was observed
resistance to protease (FIG. 10) ([1]; no TCEP): high protease resistance

Molecule: CCC(C)C(NC(=O)C(Cc1ccc(O)cc1)NC(=O)C(N)CS)C(=O)NC(CCC(N)=O)C(=O)NC(CC(N)=O)C(=O)NC(CS)C(=O)N1CCCC1C(=O)NC(CC(C)C)C(=O)NCC(N)=O (stereo not drawn) [oxytocin-RD]
change of HPLC peak after addition of α-chymotrypsin [1, 8]: any peak disappeared after only 10 minutes
resistance to protease (FIG. 10) [1, 9]: extremely low

Molecule: C#CCON=C(C)C1SC[C@H](NC(=O)[C@H](CC(=O)O)NC(=O)[C@@H]2CCCN2C(=O)CNC(=O)[C@H](CO)NC(=O)CNC(=O)CNC(=O)[C@H](CO)NC(=O)CN)C(=O)N[C@@H](C)C(=O)N[C@@H](Cc2ccc(O)cc2)C(=O)N[C@@H](Cc2c[nH]cn2)C(=O)N[C@@H](CCCNC(=N)N)C(=O)NCC(=O)N[C@@H](CCC(=O)O)C(=O)N[C@@H](CC(C)C)C(=O)N[C@@H](C(C)C)C(=O)N[C@@H](Cc2c[nH]c3ccccc23)C(=O)N[C@H](C(=O)N[C@H](C(=O)N[C@@H](Cc2ccccc2)C(=O)N[C@@H](Cc2c[nH]cn2)C(N)=O)[C@@H](C)O)CS1 (stereo partly drawn) (H-GSGGSGPDCAYHRGELVWCTFH-NH2; linker 9-19 via X4; C-terminus assumed)
reduction of affinity as compared with the original peptide ([2]; Kd relative to original disulfide IgG-binding peptide): about 42 fold
Kd ([2]; SPR, human IgG1): 334 nM

Molecule: CC(C)C[C@@H]1NC(=O)[C@H](CCC(=O)O)NC(=O)CNC(=O)[C@H](CCCNC(=N)N)NC(=O)[C@H](Cc2c[nH]cn2)NC(=O)[C@H](Cc2ccc(O)cc2)NC(=O)[C@H](C)NC(=O)[C@@H](NC(=O)[C@H](CC(=O)O)NC(=O)[C@@H]2CCCN2C(=O)CNC(=O)[C@H](CO)NC(=O)CNC(=O)CNC(=O)[C@H](CO)NC(=O)CN)CSSC[C@@H](C(=O)N[C@H](C(=O)N[C@@H](Cc2ccccc2)C(=O)N[C@@H](Cc2c[nH]cn2)C(=O)O)[C@@H](C)O)NC(=O)[C@H](Cc2c[nH]c3ccccc23)NC(=O)[C@H](C(C)C)NC1=O [IgG-BP-LongGS Original] (H-GSGGSGPDCAYHRGELVWCTFH-OH; disulfide 9-19; N-terminus and C-terminus assumed)
kd ([2]; SPR, IgG immobilized on CM5 chip, HBS-EP pH 7.4): 0.019
ka ([2]; SPR, IgG immobilized on CM5 chip, HBS-EP pH 7.4, in M-1 s-1 (unit assumed)): 2.37E+06
change in amount of binding of the antibody to the column by alkali washing (FIG. 2) ([3]; 0.1 M NaOH washing/PBS washing, 1 to 30 cycles): reduced by alkali washing
value of DBC, by itself, of peptide-immobilized column ([3]; before repeated alkali washing, 1 mL/min): 17.24 mg/mL
initial value of DBC of peptide column ([3]; initial value, 1 mg peptide on 1-mL column, 1 mL/min): 17.24 mg/mL-column
Variation (%) in dynamic binding capacity [3, 10]: 100.0%
Variation (%) in maximum binding capacity [3, 10]: 100.0%
Maximum binding capacity ([3]; number of washing times with 0.1 N NaOH: 1, 1 mg peptide on 1-mL column): 12.37 mg
Dynamic binding capacity ([3]; number of washing times with 0.1 N NaOH: 1, 1 mL/min): 17.24 mg/mL
Variation (%) in maximum binding capacity ([3]; number of washing times with 0.1 N NaOH: 5): 49.2%
Maximum binding capacity ([3]; number of washing times with 0.1 N NaOH: 5, 1 mg peptide on 1-mL column): 6.09 mg
Dynamic binding capacity ([3]; number of washing times with 0.1 N NaOH: 5, 1 mL/min): 8.74 mg/mL
Variation (%) in dynamic binding capacity ([3]; number of washing times with 0.1 N NaOH: 5, listed as IgG-BP-LGS): 50.7%
Variation (%) in dynamic binding capacity ([3]; number of washing times with 0.1 N NaOH: 5, listed as original IgG-binding peptide-immobilized column having a disulfide bond): ≤ 50%

More lines, now with the values ahead:

change of HPLC peak after addition of α-chymotrypsin [1, 8]: no decrease was observed
resistance to protease (FIG. 10) [1, 9]: high resistance
Molecule: CCC(C)C1NC(=O)C(Cc2ccc(O)cc2)NC(=O)C(N)CSC(C(=O)c2ccccc2)SCC(C(=O)N2CCCC2C(=O)NC(CC(C)C)C(=O)NCC(N)=O)NC(=O)C(CC(N)=O)NC(=O)C(CCC(N)=O)NC1=O (stereo not drawn) [oxytocin-DP]

change of HPLC peak after addition of α-chymotrypsin [1, 8]: no decrease was observed
resistance to protease (FIG. 10) [1, 9]: high resistance
Molecule: CCC(C)C1NC(=O)C(Cc2ccc(O)cc2)NC(=O)C(N)CS/C(=C/c2ccccc2)SCC(C(=O)N2CCCC2C(=O)NC(CC(C)C)C(=O)NCC(N)=O)NC(=O)C(CC(N)=O)NC(=O)C(CCC(N)=O)NC1=O (stereo not drawn) [oxytocin-DP-RDH]

Kd [4]: 4900 nM
fold reduction of affinity against the original peptide [5]: 500 fold
initial value of DBC [6]: 2.3 mg/mL-column
B1: 1,3-dichloroacetone-crosslinked cyclic peptide of IgG-BP-LongGS (peptide)
peptide: GSGGSGPDCAYHRGELVWCTFH
modifications: the thiol groups of the two Cys residues crosslinked with 1,3-dichloroacetone in place of the disulfide bond

Kd [4]: 6.4 nM
B2: 2,2-dichloroacetophenone-crosslinked cyclic peptide of IgG-BP-LongGS (peptide)
peptide: GSGGSGPDCAYHRGELVWCTFH
modifications: the thiol groups of the two Cys residues crosslinked with 2,2-dichloroacetophenone in place of the disulfide bond; Fmoc removed

Kd [7]: 334 nM
fold reduction of affinity against the original peptide [7]: 42 fold
B3: alkyne functional group-introduced, crosslinked and cyclized peptide (1,1-dichloroacetone-crosslinked IgG-BP-LongGS reacted with O-2-Propynylhydroxylamine) (peptide)
peptide: GSGGSGPDCAYHRGELVWCTFH
modifications: not fully specified; the two Cys thiols crosslinked with 1,1-dichloroacetone; the crosslink reacted with O-2-Propynylhydroxylamine hydrochloride to introduce an alkyne group
